“Also recorded” adds a separate entry of the source.
How the values were obtained:
Lck SH2 domain = biological target: T1, Lck SH2 domain (Homo sapiens, UniProt P06239); experiment: solid phase EIA of Lck SH2 domain binding to CD3 ζ chain ITAM peptide; conditions: screening concentration of 100 μM
T1 construct: GST
Description: Compounds have been identified that inhibited Lck SH2 domain binding to the CD3 ζ chain ITAM peptide using a combination of CADD and biological assays using a solid phase EIA assay developed in our laboratory.
(§1) Lck kinase is a member of Src family kinases including Fyn, Lyn, and Hck that have SH2 domains sharing significant sequence homologies at βD5, βE4, EF1 and βG4 sites where these amino acids form the pY+3 binding pocket. Accordingly, it was important to test inhibition specificities of compounds against SH2 domains of these Src kinases and other signal transduction molecules involved in TCR proximal signaling. All 42 compounds identified in the above assay were subjected to specificity screening using a solid phase EIA assay using 7 different GST-SH2 domains (Lck, Fyn, Lyn, Hck, Src, She and Grb2).
(§2) All the compounds that had >40% inhibitory effect in the cellular assays were tested in the solid phase specificity screening assay and three compounds, 72, 87 and 241 were identified to be specific to Lck. Due to the fact that these compounds were specific to Lck SH2 domain, in vitro and in vivo assays described below were conducted using these 3 compounds.

[1] = tested on: GST-SH2 domains (Fyn, Lyn, Hck, Src, She and Grb2); experiment: solid phase EIA specificity screening with other GST-SH2 domains; type: binding; conditions: screening concentration of 100 μM
Description: as §1, §2

[2] = tested on: Mtb-induced adjuvant arthritis; experiment: Mtb-induced adjuvant arthritis (AA) in Lewis rats; type: in vivo, Lewis rat
Method: FIG. 4A is a line graph showing the effect of SMILS in a preventive treatment regimen. […] Mtb was injected on day 0. ▭—Untreated group, ◯—SMILS treated group.
FIG. 4B is a line graph showing the effect of SMILS in therapeutic-1 treatment regimen. […] Mtb was injected on day 0. ⋄—Untreated group, ◯—SMILS treated group (3 mg/kg body weight), ●—SMILS (1 mg/kg body weight) treatment group.
FIG. 4C is a line graph showing the effects of SMILS in therapeutic-2 treatment regimen. […] Mtb was injected on day 0. ⋄—Untreated group, ●—SMILS (3 mg/kg body weight) treatment group.
Pilot experiments using Lewis rats were carried out to assess the effect of SMILS on Mtb-induced AA. The initial experiments described here were carried out using compound 241. Experiments were carried out to test the efficacy of SMILS (3 mg/kg body weight injected i.p.) in three treatment regimens: i.e., preventive: (SMILS injected at −3, −2, −1, 0 days before Mtb injection); therapeutic 1: at the time of AA induction (SMILS injected at 0, 1, 2, 3, 4 days after Mtb injection); and therapeutic 2: at the time of clinical symptom appearance (SMILS injected at 10, 11, 12, 13 days after Mtb injection).
In addition to the visual scoring of the joint swelling, histological examinations of joints from all 4 paws collected at the peak of the disease were carried out.

T1 sequence (P06239 127-224 limits assumed): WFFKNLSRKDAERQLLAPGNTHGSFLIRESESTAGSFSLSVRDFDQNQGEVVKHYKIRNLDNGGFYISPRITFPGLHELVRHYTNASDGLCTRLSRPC

Row | Structure (SMILES) | specificity towards Lck SH2 domain (Lck SH2 domain) | inhibitory activity against the other SH2 domains [1] | joint swelling in Mtb-induced AA, therapeutic 1 regimen ([2]; 3 mg/kg i.p. on days 0, 1, 2, 3, 4 after Mtb, Lewis rats) | joint swelling in Mtb-induced AA, therapeutic 2 regimen ([2]; 3 mg/kg i.p. on days 10, 11, 12, 13 after Mtb, Lewis rats) | joint swelling in Mtb-induced AA, preventive regimen ([2]; 3 mg/kg i.p. on days -3, -2, -1, 0, Lewis rats) | histological examination of joints ([2]; paws collected at the peak of the disease, AA rats)
1 | O=C(O)COc1ccccc1/C=N/NC(=O)c1cc(Cl)ccc1O [Compound 72] | showed specificities towards Lck SH2 domain | little or no inhibitory activity | – | – | – | –
2 | O=C(NCCSc1ccccc1)c1cncc(Br)c1 [Compound 241] | showed specificities towards Lck SH2 domain | little or no inhibitory activity | significantly reduced the joint swellings in all rats | significantly reduced the joint swellings in all rats | delayed the onset of joint swelling and reduced the severity of joint swellings | absence of damage to the cartilage and inflammatory cells; also recorded: No infiltration of inflammatory cells is observed in the joint space

Reference: patent US8476273B2, “Small molecule inhibitors of Lck SH2 domain binding” (University of Maryland, Baltimore, priority 2007, dated 2013)
